In brackets after ≈: the same amount, converted by molar mass.
Tests used:
Staph. aureus SG 511 = test: Minimum inhibiting concentration, serial dilution test in the microtiter system; assay type: cell-based; settings: Staphylococcus aureus, SG511, 37° C., 18 to 20 hours
Procedure: (§1) These tests were performed using the serial dilution test in the microtiter system. The effect of the test compound on bacteriostasis was tested in a liquid medium at the following concentrations: 128, 64, 32, 16, 8, 4, 2, 1, 0.5, 0.25, 0.12 and 0.06 μgm/ml. The nutrient medium consisted of 10 gm of peptone, 8 gm of meat extract oxoid, 3 gm of sodium chloride, and 2 gm of sec. sodium phosphate diluted with distilled water to […] (pH 7.2-7.4). The age of the primary cultures was approximately 20 hours. The standardization of the bacteria suspension was effected using a photometer according to the method of Eppendorf (test tube .phi. 14 mm, filter 546 nm), using for comparison a barium sulfate suspension formed by the addition of 3.0 ml of 1% barium chloride solution to 97 ml of 1% sulfuric acid. After standardization, the test microorganisms were further diluted to a concentration of 1:1500, using a sodium chloride solution.
(§2) 16 mgm of the particular test compound were put into a 10 ml measuring flask, and the flask was subsequently filled to the mark with the solvent. The further dilution series was standardized with distilled water or the appropriate solvent.
(§3) The depressions of the microtiter plates were filled with 0.2 ml of nutrient medium. 0.01 ml of the appropriate test compound solution was then added, followed by inoculation with 0.1 ml (1 drop) of the standardized bacteria suspension. The bacteria were incubated at 37° C. for 18 to 20 hours. Control tests using only the solvent were carried out simultaneously.
(§4) The readings were made macroscopically to determine the minimum inhibitory concentration (the lowest still bacteriostatically effective concentration).
(§5) Staphylococcus aureus SG 511, Escherichia coli ATCC 11 775, Pseudomonas aeruginosa hamburgensis and Pseudomonas aeruginosa BC 19, Serratia marcescens ATCC 13 800, Klebsiella pneumoniae ATCC 10031 and BC 6, Proteus mirabilis BC 17, Proteus rettgeri BC 7, Enterobacter Cloaceae ATCC 13047 and E. coli R+TEM (β-lactamase carrier).

Kl. pneum. BC 6 = test: as above; assay type: cell-based; settings: Klebsiella pneumoniae, 37° C., 18 to 20 hours
Procedure: as §1, §2, §3, §4, §5

Kl. pneum. ATCC 10031 = test: as above; assay type: cell-based; settings: Klebsiella pneumoniae, ATCC10031, 37° C., 18 to 20 hours
Procedure: as §1, §2, §3, §4, §5

E. coli ATCC 11775 [1] = test: as above; assay type: cell-based; settings: Escherichia coli, ATCC11775, 37° C., 18 to 20 hours
Procedure: as §1, §2, §3, §4, §5

[2] = system: Serr. marcesc. ATCC 13880; test: as above; assay type: cell-based; settings: Serratia marcescens, ATCC13880, 37° C., 18 to 20 hours
Procedure: as §1, §2, §3, §4, §5

Pseud. BC 19 = test: as above; assay type: cell-based; settings: Pseudomonas aeruginosa, 37° C., 18 to 20 hours
Procedure: as §1, §2, §3, §4, §5

Prot. mirab. BC 17 = test: as above; assay type: cell-based; settings: Proteus mirabilis, 37° C., 18 to 20 hours
Procedure: as §1, §2, §3, §4, §5

E. coli R + TEM = test: as above; assay type: cell-based; settings: Escherichia coli, read-out: Minimum inhibiting concentration (MIC)
Procedure: as §1, §2, §3, §4, §5

E. coli ATCC 11775 [3] = test: In vivo activity against experimental E. coli infection in mice; set-up: species or system E. coli in female mice of the NMRI strain; settings: Escherichia coli, ATCC11775, sc, 168 h; s.c. administration once, 1 hour after i.p. infection; dose at which 50% of the animals survive; 7 days
Procedure: A few compounds of the invention and cefuroxim were tested in vivo against experimental infections in mice. E. coli ATCC 11775 was used as the pathogenic bacteria. An intraperitoneal infection was induced with 0.2 ml of a 5% mucin suspension of the bacteria. This corresponds to approximately 1.4×10^6 E. coli bacteria per mouse. Female mice of the NMRI strain were divided into groups of 10 animals, of which 2 groups remained untreated while the remaining groups were treated with various doses of the particular cephalosporin according to the invention for the purpose of determining the ED50 (dose at which 50% of the animals survive). The treatment was applied once (1 hour after infection). The observation period was 7 days. The results of these tests are shown in Table III below, where the numbering of the compounds again corresponds to that used in Table I.

Prot. rettg. = test: Minimum inhibiting concentration, serial dilution test in the microtiter system; assay type: cell-based, Proteus rettgeri; settings: Providencia rettgeri, 37° C., 18 to 20 hours
Procedure: as §1, §2, §3, §4, §5

Pseud. Hbg. = test: as above; assay type: cell-based, Pseudomonas aeruginosa hamburgensis; settings: Pseudomonas aeruginosa, 37° C., 18 to 20 hours
Procedure: as §1, §2, §3, §4, §5

Ent. cloac. ATCC 13047 = test: as above; assay type: cell-based, Enterobacter Cloaceae; settings: Enterobacter, ATCC13047, 37° C., 18 to 20 hours
Procedure: as §1, §2, §3, §4, §5

K. pneum. 1082 E = test: as above; assay type: cell-based; settings: Klebsiella pneumoniae, 37° C., 18 to 20 hours
Procedure: as §1, §2, §3, §4

| Compound | MIC (Staph. aureus SG 511) | MIC (Kl. pneum. BC 6) | MIC (Kl. pneum. ATCC 10031) | MIC (E. coli ATCC 11775 [1]) | MIC [2] | MIC (Pseud. BC 19) | MIC (Prot. mirab. BC 17) | MIC (E. coli R + TEM) | ED50 (E. coli ATCC 11775 [3]) | MIC (Prot. rettg.) | MIC (Pseud. Hbg.) | MIC (Ent. cloac. ATCC 13047) | MIC (K. pneum. 1082 E) |
| --- | --- | --- | --- | --- | --- | --- | --- | --- | --- | --- | --- | --- | --- |
| CO/N=C(\C(=O)N[C@@H]1C(=O)N2C(C(=O)O)=C(COC(N)=O)CS[C@H]12)c1ccco1 [Cefuroxim, reference compound] | 1 µg/mL (≈ 2.36 µM) | 4 µg/mL (≈ 9.43 µM) | 2 µg/mL (≈ 4.71 µM) | 8 µg/mL (≈ 18.9 µM) | 8 µg/mL (≈ 18.9 µM) | > 128 µg/mL | 0.5 µg/mL (≈ 1.18 µM) | 4 µg/mL (≈ 9.43 µM) | > 100 mg/kg | 2 µg/mL (≈ 4.71 µM) | > 128 µg/mL | 32 µg/mL (≈ 75.4 µM) | – |
| Cn1nnnc1SCC1=C(C(=O)O)N2C(=O)[C@@H](NC(=O)C(NC(=O)Nc3cnc(NCc4ccco4)nc3O)c3csc(N)n3)[C@H]2SC1 (some centres unmarked) [Compound 1] | 1 µg/mL (≈ 1.4 µM) | 0.03 µg/mL (≈ 0.0419 µM) | 0.06 µg/mL (≈ 0.0838 µM) | 0.03 µg/mL (≈ 0.0419 µM) | 0.06 µg/mL (≈ 0.0838 µM) | 16 µg/mL (≈ 22.4 µM) | 0.01 µg/mL (≈ 0.014 µM) | 0.5 µg/mL (≈ 0.699 µM) | 0.8 mg/kg | 0.06 µg/mL (≈ 0.0838 µM) | 16 µg/mL (≈ 22.4 µM) | 0.25 µg/mL (≈ 0.349 µM) | 16 µg/mL (≈ 22.4 µM) |
| CO[C@@]1(NC(=O)C(NC(=O)Nc2cnc(NCc3ccc(S(N)(=O)=O)s3)nc2O)c2ccccc2)C(=O)N2C(C(=O)O)=C(CSc3nnnn3C)CS[C@@H]21 (some centres unmarked) [Compound 11] | 1 µg/mL (≈ 1.22 µM) | 0.25 µg/mL (≈ 0.305 µM) | 0.25 µg/mL (≈ 0.305 µM) | 0.12 µg/mL (≈ 0.147 µM) | 0.25 µg/mL (≈ 0.305 µM) | 8 µg/mL (≈ 9.77 µM) | 0.06 µg/mL (≈ 0.0733 µM) | 0.25 µg/mL (≈ 0.305 µM) | ~5 mg/kg | 0.5 µg/mL (≈ 0.611 µM) | 16 µg/mL (≈ 19.5 µM) | 0.5 µg/mL (≈ 0.611 µM) | 0.25 µg/mL (≈ 0.305 µM) |
| Cn1nnnc1SCC1=C(C(=O)O)N2C(=O)[C@@H](NC(=O)C(NC(=O)Nc3cnc(NCc4ccc(S(N)(=O)=O)s4)nc3O)c3csc(N)n3)[C@H]2SC1 (some centres unmarked) [Compound 4] | 1 µg/mL (≈ 1.23 µM) | 0.03 µg/mL (≈ 0.037 µM) | 0.03 µg/mL (≈ 0.037 µM) | 0.01 µg/mL (≈ 0.0123 µM) | 0.06 µg/mL (≈ 0.074 µM) | 8 µg/mL (≈ 9.87 µM) | 0.01 µg/mL (≈ 0.0123 µM) | 0.25 µg/mL (≈ 0.308 µM) | < 0.5 mg/kg | 0.01 µg/mL (≈ 0.0123 µM) | 16 µg/mL (≈ 19.7 µM) | 0.06 µg/mL (≈ 0.074 µM) | 8 µg/mL (≈ 9.87 µM) |
| CO[C@@]1(NC(=O)C(NC(=O)Nc2cnc(NCc3ccco3)nc2O)c2ccccc2)C(=O)N2C(C(=O)O)=C(CSc3nnnn3C)CS[C@@H]21 (some centres unmarked) [Compound 14] | 0.5 µg/mL (≈ 0.691 µM) | 0.25 µg/mL (≈ 0.345 µM) | 0.25 µg/mL (≈ 0.345 µM) | 0.12 µg/mL (≈ 0.166 µM) | 0.25 µg/mL (≈ 0.345 µM) | 8 µg/mL (≈ 11.1 µM) | 0.12 µg/mL (≈ 0.166 µM) | 0.25 µg/mL (≈ 0.345 µM) | 2.5 to 5 mg/kg | 1 µg/mL (≈ 1.38 µM) | 8 µg/mL (≈ 11.1 µM) | 1 µg/mL (≈ 1.38 µM) | 0.25 µg/mL (≈ 0.345 µM) |
| Nc1nc(C(NC(=O)Nc2cnc(NCc3ccc(S(N)(=O)=O)s3)nc2O)C(=O)N[C@@H]2C(=O)N3C(C(=O)O)=C(CSc4nnnn4CCO)CS[C@H]23)cs1 (some centres unmarked) [Compound 6] | 1 µg/mL (≈ 1.19 µM) | 0.03 µg/mL (≈ 0.0357 µM) | 0.06 µg/mL (≈ 0.0713 µM) | < 0.03 µg/mL | 0.06 µg/mL (≈ 0.0713 µM) | 8 µg/mL (≈ 9.51 µM) | 0.03 µg/mL (≈ 0.0357 µM) | 0.5 µg/mL (≈ 0.595 µM) | < 0.5 mg/kg | 0.06 µg/mL (≈ 0.0713 µM) | 16 µg/mL (≈ 19 µM) | 0.06 µg/mL (≈ 0.0713 µM) | 16 µg/mL (≈ 19 µM) |

Source: patent US4364944A, “Cephalosporins” (Dr. Karl Thomae Gesellschaft mit beschrankter Haftung, priority 1980, dated 1982)
